Results reported in PMC3836994, “Killer Bee Molecules: Antimicrobial Peptides as Effector Molecules to Target Sporogonic Stages of Plasmodium” (PLoS Pathogens, 2013).
Several values for one entry are separate records, joined by “and”; a condition that tells them apart may be missing. Equal values may be shown once. Entries after “also recorded” stand apart in the source; their conditions may differ.

Tests used:
P. falciparum [1] = conditions: added to blood meals at 30 µM; ref [35]; cited from earlier work
Experimental: Some candidate AMPs were additionally investigated using P. falciparum and An. gambiae. TP10 dimer and Melittin lowered both prevalence and intensity of P. falciparum infections produced from laboratory cultures. It has already been reported that the monomer of TP10, added to blood meals at 30 µM, reduced parasite prevalence by 35–45% [35].

[2] = system: Anopheles gambiae Sua 4.0 cells; assay: Sua 4.0 mosquito cell viability (erythrosin B exclusion); format: cell-based; parameters: dose or concentration left out as unconfirmed; conditions: after 48 h culture
Experimental: (§1) To establish potential effects of AMPs on mosquito cells, the An. gambiae Sua 4.0 cell line was used. This facilitated an initial high-throughput screening and provided insights into AMP toxicity, mode of action (lytic or other) and speed of action. Sua 4.0 cells were maintained at 27°C in Schneider's insect medium supplemented with 10% FBS (foetal bovine serum) in T25 culture flasks (Fisher, UK).
(§2) Each AMP was tested separately to establish if it affected cell viability and growth. […] Cells were maintained for 3, 6, 24 or 48 h, after which they were resuspended and a sub-sample from duplicate wells counted using a haemocytometer. To establish cell viability after 48 h (whether simply arrested in development or non-viable), resuspended cells were added to an equal volume of 5% erythrosin B vital dye and viable cells excluding the stain were counted. The viability of 100 cells in triplicate wells was recorded. Each AMP assay was performed in triplicate and included a negative control minus the peptide (5 µl of water alone added to the medium) and a further control of 5 µl of 10% SDS (sodium dodecyl sulphate) substituted for the AMP as this causes 100% cell lysis.

P. berghei ookinetes = assay: P. berghei ookinete viability in vitro (erythrosin B); format: cell-based, Plasmodium berghei; conditions: 30 min; for Reduction in ookinete viability: versus control
Experimental: Our primary aim was to target parasites in mosquitoes before they cross the midgut wall, therefore AMPs were first assessed for their ability to kill ookinetes in vitro. […] Ookinete cultures of P. berghei were established from gametocytaemic blood as previously described. Parasites were enriched using cold 0.17M ammonium chloride after 18 h of culture and washed thoroughly with PBS (phosphate buffered saline). Parasites were seeded in triplicate wells of a 96-well microtitre plate at a density of 1×10^5/ml in a volume of 47.5 µl Schneider's insect medium (Invitrogen) with 2.5 µl of the test AMP (final concentration of 50 µM). Ookinetes were incubated for 30 min in conjunction with triplicate control wells containing medium with 2.5 µl of water instead of AMP. A sub-sample of parasites was then added to an equal volume of 5% erythrosin B to assess viability (150 ookinetes in total, taken from 3 wells). Each of the 33 AMPs was screened in this way and assays were performed 3 times. AMPs displaying a high degree of toxicity (>90% of ookinetes displaying erythrosin B staining) underwent further ookinete assays using a concentration of 100 µM AMP. To assess synergistic effects, combinations of two peptides were also tested at a concentration of 25 µM per AMP, in the assay described above.

[3] = system: Anopheles gambiae Sua 4.0 cells; assay: Sua 4.0 mosquito cell growth (cell counts); format: cell-based; conditions: 25 µM AMP; for Average number of cells over 3 replicates, peptide: seeded 30×10^4/ml, mean of 3 experiments
Experimental: as §1, §2

P. falciparum [4] = assay: Field P. falciparum from gametocyte carriers membrane-fed to An. gambiae (Mali); format: in vivo, Plasmodium falciparum; conditions: Replicate 1, 50 µM
Excerpt: Nyaganabougou, a village approximately 60 km south-west of the Malian capital, Bamako, was used as a site for the source of donors of malaria-infected blood. Due to its proximity to the river Niger, which provides perennial mosquito breeding sites, Nyaganabougou has high numbers of infected individuals and an extended transmission season. Mosquitoes used to establish the An. gambiae Mali colony used for this study were originally collected in the village of Kenieroba (a distance of 15 km from Nyaganabougou). Potential male and female gametocyte carriers between the ages of 6–10 were screened by thick smear and parasite species and density determined by local staff, led by Saibou Doumbia.
Gametocyte carriers were taken to the Malaria Research and Training Centre at the University of Bamako for blood donation. Approximately 4 ml of blood was extracted from carriers and immediately divided into 3 Hemotek membrane feeders for testing 2 separate AMPs and one control for each carrier. Peptides were added to 950 µl of gametocytaemic blood for a final concentration of 50 µM. All parasite-positive individuals were subsequently treated appropriately for parasites and associated symptoms, as determined by, and carried out by, local health workers in Nyaganabougou.
Approximately 120 adult female An. gambiae (Mali, 4–7 days old) were starved overnight, and allowed to feed on the gametocytaemic blood/AMP mix for 30 min. Engorged females were maintained on 10% glucose with 0.05% PABA for 8 days before dissection. No oviposition sites were provided so that fecundity could be measured by determining retained eggs. Mosquito wing length, numbers of retained eggs and oocysts were recorded, and triplicate peptide experiments were carried out on different mosquito cohorts, using blood from different donors. Where possible, a minimum of 50 mosquitoes were dissected for each condition.

[5] = system: An. gambiae (Mali strain); assay: Mosquito longevity after blood feeds containing AMP; format: in vivo, Anopheles gambiae; conditions: 50 µM AMP in blood on days 0 and 7; extended to 30 days
[6] = system: An. gambiae (Mali strain); assay: as above; format: in vivo, Anopheles gambiae; conditions: for Significance of effect on longevity over 10 days: 50 µM AMP, Kaplan-Meier, Wilcoxon, peptide vs control; for Percent alive, peptide: over 10 days, 50 µM AMP in human blood, feeds on days 0 and 7, 3 or 4 replicates
Experimental: (§3) Female An. gambiae (Mali strain, 3–5 days old) were used to establish the effects of AMPs on mosquito longevity and fecundity in the absence of confounding factors introduced with parasite infection. Two hundred 3–6 day old females were fed on human O+ whole blood supplemented with 50 µM AMP (or water control, 1 ml total volume) via feeding chambers of a Hemotek membrane feeding system. Fully engorged mosquitoes were randomly moved into four separate cages, each containing 25 mosquitoes, to facilitate monitoring. Mortality rates were recorded daily for a 10-day period, and oviposition sites were provided on the second and third night post-feeding. A second blood feed containing the same AMP was administered 7 days later to mimic the likelihood that mosquitoes would feed at least twice in the field during the development of sporogonic stages of the malaria parasite. Oviposition sites were again provided to assess fecundity through the number of eggs laid as an average per surviving mosquito. Assays for each AMP were repeated in triplicate on separate generations of mosquitoes. Due to egg retention under experimental conditions, egg production is best measured by dissecting mosquitoes that have not been provided with an oviposition site. However, this is not a feasible method of determining fecundity when longevity is also being measured.

P. falciparum [7] = assay: Cultured P. falciparum gametocytes membrane-fed to An. gambiae (oocyst prevalence and intensity); format: in vivo, Plasmodium falciparum; conditions: 50 µM; for Oocyst intensity (mean number of oocysts per gut, range in parentheses), peptide / Oocyst prevalence (oocyst positive mosquitoes), peptide: cultured gametocytes, An. gambiae
Experimental: P. falciparum NF54 gametocytes were produced through large-scale automated culture at the Pasteur Institute, Paris, [69]. Gametocytes were grown in 10 ml RPMI 1640 medium (Invitrogen), supplemented with 25 mM HEPES and L-glutamine, 10% heat-inactivated human serum and hypoxanthine (20 mg/L) under a constant gas supply (5% CO2, 1% O2, 94% N2). Fresh red blood cells (RBCs) were added to obtain a 7% haematocrit. Fourteen days after initiating the culture, gametocyte maturity was assessed on thin Giemsa-stained blood smears, and male gametocyte maturity verified by exflagellation tests. Gametocyte cultures were centrifuged for 5 min at 1500 rpm and the ∼500–600 µl pellet resuspended in fresh RBCs and AB human serum to give a final haematocrit of 40%.
Blood containing mature gametocytes (475 µl) was added to 25 µl of the test AMP (50 µM final concentration). Peptides were replaced by 25 µl of sterile deionized water for each control. The blood/parasite/peptide mixture was placed in a Hemotek membrane feeder, previously warmed to 37°C. For each feed, 70 to 100 nulliparous female An. gambiae mosquitoes were left to feed in the dark for 15 min and only fully engorged females were transferred to small cages and provided with 10% sucrose containing 0.05% PABA. After 8 days, 30 midguts were dissected and stained with bromo fluorescein for the detection of oocysts.

[8] = system: An. gambiae (Mali strain); assay: Mosquito oviposition after blood feed containing AMP; format: in vivo, Anopheles gambiae; conditions: for Significance of effect on oviposition: 50 µM AMP, one-way ANOVA, peptide vs control; for Mean no. of eggs laid per mosquito, peptide: after first feed with 50 µM AMP, eggs laid over two nights, averaged per surviving mosquito, 3 or 4 replicates
Experimental: as §3

P. berghei = P. berghei infections in Anopheles stephensi (oocyst prevalence and intensity); format: in vivo, Plasmodium berghei; conditions: for Prevalence (proportion of infected mosquitoes), peptide: 50 µM peptide in gametocytaemic mouse blood fed to An. stephensi; for Intensity (mean number of oocysts, range in parentheses), peptide: 50 µM peptide, An. stephensi
Experimental: To assess the effects of AMPs on parasites in vivo, mouse blood containing P. berghei gametocytes was obtained by cardiac puncture and 475 µl was rapidly mixed with 25 µl (50 µM final concentration) of AMP. This mixture was fed to 100 nulliparous 3–5 day old female An. stephensi. A further 475 µl of blood from the same infection was mixed with 25 µl of distilled water to act as a control. Mosquitoes were maintained at 19°C for optimum parasite development. Between 30 and 50 mosquitoes were dissected after 10 days. Mosquito wing length, numbers of retained eggs and oocysts were recorded in triplicate experiments carried out on different mosquito cohorts.

[9] = 50 µM of single peptide, n = 150 ookinetes per treatment per replicate
[10] = 3 hrs in culture, haemocytometer count of duplicate wells
[11] = Replicate 1, dissected after 8 days
[12] = over the three replicates, 50 µM

Row | Molecule | Average ookinete viability (3 reps), peptide (P. berghei ookinetes; [9]) [%] | Reduction in ookinete viability (P. berghei ookinetes; 50 µM of single peptide) [%] | Reduction in cell number (compared to control) ([3]; 3 hrs in culture) [%] | Average number of cells over 3 replicates, peptide [3, 10] [mL⁻¹] | Reduction in cell number (compared to control) ([3]; 24 hrs in culture) [%] | Average number of cells over 3 replicates, peptide ([3]; 24 hrs in culture) | Reduction in cell number (compared to control) ([3]; 48 hrs in culture) [%] | Average number of cells over 3 replicates, peptide ([3]; 48 hrs in culture) [mL⁻¹] | Significance of effect on longevity over 10 days [6] | Percent alive, peptide [6] [%] | Oocyst intensity (mean number of oocysts per gut, range in parentheses), peptide (P. falciparum [7]; Replicate 1) | Oocyst prevalence (oocyst positive mosquitoes), peptide (P. falciparum [7]; [11]) | Oocyst intensity (mean number of oocysts per gut, range in parentheses), peptide (P. falciparum [7]; Replicate 2) | Oocyst prevalence (oocyst positive mosquitoes), peptide (P. falciparum [7]; Replicate 2) | Oocyst intensity (mean number of oocysts per gut, range in parentheses), peptide (P. falciparum [7]; Replicate 3) | Oocyst prevalence (oocyst positive mosquitoes), peptide (P. falciparum [7]; Replicate 3) | Significance of effect on oviposition [8] | Mean no. of eggs laid per mosquito, peptide [8] | further results
1 | CC[C@H](C)[C@H](NC(=O)[C@H](CCCCN)NC(=O)[C@H](CCCCN)NC(=O)[C@H](C)NC(=O)[C@H](CC(C)C)NC(=O)[C@H](C)NC(=O)[C@H](C)NC(=O)[C@H](CC(C)C)NC(=O)[C@H](C)NC(=O)[C@H](CCCCN)NC(=O)[C@H](CC(C)C)NC(=O)[C@H](CC(N)=O)NC(=O)[C@@H](NC(=O)[C@H](CCCCN)NC(=O)CNC(=O)[C@H](CC(C)C)NC(=O)[C@H](CC(C)C)NC(=O)[C@H](Cc1ccc(O)cc1)NC(=O)CNC(=O)[C@H](C)N)[C@@H](C)CC)C(=O)N[C@@H](CC(C)C)C(=O)O [TP10] | 26 | 71 | 31 | 220000 | 23 | 400000 mL⁻¹ | 3 | 780000 |  |  |  |  |  |  |  |  |  |  | Reduction of parasite prevalence (P. falciparum [1]): 35–45%; Reduction in cell viability ([2]; versus control): 3%
2 | Mastoparan X | 41 | 57 |  |  |  |  |  |  | N/S | 84 | 2 (0–11) | 47% (30) | 2 (0–29) | 40% (30) | 11 (0–72) | 60% (30) | N/S | 44 | Oocyst prevalence (oocyst positive mosquitoes), peptide (P. falciparum [4]; blood of gametocyte carriers, progeny of field An. gambiae): 45% (40); Oocyst intensity (mean number of oocysts per gut, range in parentheses), peptide (P. falciparum [4]; field parasites and mosquitoes): 3 (0–21); Average ookinete viability (3 reps), peptide (P. berghei ookinetes; 100 µM of single peptide): 4%; Reduction in ookinete viability (P. berghei ookinetes; 100 µM of single peptide): 96%; Effect on longevity over 30 days (in words) [5]: no significant long-term effects on longevity
3 | Melittin | 0 | 100 | 84 | 50000 | 100 | no cells remaining and 0 ×10^4/ml | 100 | 0 | N/S | 84 | 0 | 0% (30) | <1 (0–1) | 17% (30) | 6 (0–74) | 37% (30) | N/S | 41 | Prevalence (proportion of infected mosquitoes), peptide (P. berghei; Replicate 1): 98% (50); Intensity (mean number of oocysts, range in parentheses), peptide (P. berghei; Replicate 1): 50 (0–192); Prevalence (proportion of infected mosquitoes), peptide (P. berghei; Replicate 2): 82% (49); Intensity (mean number of oocysts, range in parentheses), peptide (P. berghei; Replicate 2): 28 (0–160); Prevalence (proportion of infected mosquitoes), peptide (P. berghei; Replicate 3): 72% (50); Intensity (mean number of oocysts, range in parentheses), peptide (P. berghei; Replicate 3): 31 (0–412); Average reduction of parasite prevalence (P. berghei; [12]): 10%; Mean oocysts per midgut (P. berghei; [12]): 37 oocysts per midgut; Reduction of infection intensity (P. berghei; over the three replicates, 50 µM, control mean 114 oocysts): 68%; Average viability of cells (3 replicates), peptide ([2]; erythrosin B exclusion, 100 cells in triplicate wells): no intact cells remained; also recorded: No remaining cells; Average reduction of intensity of infection (P. falciparum [7]; over three replicates): 57%; Average reduction of prevalence (P. falciparum [7]; over three replicates): 60%
